MIC data for 4 compounds are collected here from patent US4241069A, “3-Methylene flavanones and 3-methylene chromanones” (Miles Laboratories, Inc., priority 1979, dated 1980).

Each structure is given as a SMILES string. In brackets after ≈: the same amount, converted by molar mass.

Assay in all cases: MIC, agar incorporation method
For one assay, the system named is A. fumigatus NRRL 163. The assay is classed as cell-based. The note with it: Aspergillus fumigatus, NRRL163, NRRL 163; 32° C., 48-72 hours; read-out: Minimal Inhibitory Concentration. The method, then:
(§1) The compounds of the present invention were tested for their ability to inhibit the growth of microorganisms by in vitro tests. Generally the in vitro tests involve growing representative microorganisms under conditions favorable to such growth and measuring the effectiveness of one or more compounds in inhibiting or destroying the growth of the microorganisms. The microorganisms used include representative bacteria, fungi and yeasts.
(§2) A representative selection of the test microorganisms were cultured in a nutrient broth, such as, for example, Eugon, commercially available from Difco Laboratories, Detroit, Michigan. Bacteria and Candida species were cultured for 24 hours at 32°-37° C. and fungi were cultured for approximately one week at 32° C. Inocula were prepared by suspending the growth or spores from a slant culture in sufficient sterile normal (0.9 percent) saline or Eugon broth, to yield cell or spore concentrations of 1,000,000 cells per milliliter. Anaerobic bacteria were cultured for 48-72 hours at 32°-37° C. in a thioglycollate containing medium, for example, Fluid Thioglycollate medium or NIH thioglycollate broth, commercially available from Difco Laboratories.
(§3) The compounds of the present invention were tested for activity against bacteria, yeasts and fungi by the agar incorporation method described below. MA 1347, 3-(dimethylaminomethyl)flavanone (disclosed in U.S. Pat. No. 3,753,985) was used as a comparative standard along with controls for each solvent system used.
(§4) A series of agar plates containing two-fold dilutions of each compound to be tested, ranging in concentration from 100 to 3.1 mcg/ml of agar medium was prepared. Aliquots of each concentration (100, 50, 25, 12.5, 6.2, and 3.1) prepared in N,N-dimethylformamide or 50 percent aqueous DMF were added to liquid Eugon agar at 48° C. (one part test solution to 100 parts agar). In some cases, tests with further dilutions to 0.125 mcg/ml were conducted. The agar medium, containing the 3-methylene flavanone or chromanone compound to be tested, was then dispensed into petri dishes and allowed to solidify. The solidified plates were kept overnight at room temperatures to dry the surface of the agar.
(§5) The agar plates were then inoculated with a drop of the standardized cell or spore suspension. Inoculated plates were incubated at 32° C. The inhibition end-point or minimum inhibitory concentration (MIC) shown in Table D represent the lowest concentration of test compound which inhibited the growth of the microorganism. Visual determination of growth inhibition was used. Bacteria and yeast end-points were determined after 24 hours incubation; molds, dermatophytes and anaerobes after 48-72 hours incubation. MIC values shown as ranges represent the extremes found in repeat assays. Virtually all such values were written plus or minus one dilution, the accepted variation of a two-fold dilution assay.

The subject of a further assay is A. fumigatus NRRL 165. Format: cell-based. The note with it: Aspergillus fumigatus, NRRL165, 32° C., 48-72 hours, read-out: Minimal Inhibitory Concentration. The procedure: as §1, §2, §3, §4, §5
Assay [1] deals with Aspergillus niger ATCC 16404. The assay is classed as cell-based. The note with it: ATCC16404, 32° C., 48-72 hours, read-out: Minimal Inhibitory Concentration. The method, then: as §1, §2, §3, §4, §5
The next assay has as its system C. albicans NRRL Y-477. The assay is classed as cell-based. To be noted: Candida albicans, NRRLY477, 32° C., 24 hours, read-out: Minimal Inhibitory Concentration. The method, then:
as §1, §2, §3, §4, §5

The next assay has as its system C. guillermondii VM 42. The assay is classed as cell-based. To be noted: 32° C., 24 hours; read-out: Minimal Inhibitory Concentration. The method, then: as §1, §2, §3, §4, §5
Another assay deals with C. krusei VM 29B. Format: cell-based. The note with it: Pichia kudriavzevii, VM29B; 32° C., 24 hours; read-out: Minimal Inhibitory Concentration. The method, then:
as §1, §2, §3, §4, §5

The subject of the next assay is C. tropicalis NRRL Y1410. The assay is classed as cell-based. To be noted: Candida tropicalis, NRRLY1410; 32° C., 24 hours; read-out: Minimal Inhibitory Concentration. The method, then: as §1, §2, §3, §4, §5
The subject of assay [2] is Candida albicans ATCC 10231. Format: cell-based. The note with it: ATCC10231, C. albicans ATCC 10231, 32° C., 24 hours, read-out: Minimal Inhibitory Concentration. The procedure: as §1, §2, §3, §4, §5
Assay [3] concerns Escherichia coli ATCC 8739. The assay is classed as cell-based. To be noted: ATCC8739, 32° C., 24 hours, read-out: Minimal Inhibitory Concentration. The procedure: as §1, §2, §3, §4, §5
Assay [4] has as its system Microsporum gypseum ATCC 14683. Format: cell-based. The note with it: Nannizzia gypsea, ATCC14683, 32° C., 48-72 hours; read-out: Minimal Inhibitory Concentration. The procedure: as §1, §2, §3, §4, §5
In assay [5] the test system is Pseudomonas aeruginosa ATCC 14502. Format: cell-based. To be noted: ATCC14502, 32° C., 24 hours, read-out: Minimal Inhibitory Concentration. The method, then:
as §1, §2, §3, §4, §5

In assay [6] the test system is Staphylococcus aureus ATCC 6538. Format: cell-based. The note with it: Staphylococcus aureus, ATCC6538; S. aureus ATCC 6538; 32° C., 24 hours; read-out: Minimal Inhibitory Concentration. The procedure:
as §1, §2, §3, §4, §5

The subject of assay [7] is Streptococcus faecalis ATCC 10541. The assay is classed as cell-based. To be noted: Enterococcus faecalis, ATCC10541; 32° C., 24 hours; read-out: Minimal Inhibitory Concentration. The method, then: as §1, §2, §3, §4, §5
For the next assay, the system named is T. mentagrophytes CDC. Format: cell-based. To be noted: Trichophyton mentagrophytes, 32° C., 48-72 hours, read-out: Minimal Inhibitory Concentration. The method, then:
as §1, §2, §3, §4, §5

A further assay deals with T. mentagrophytes TM-2. The assay is classed as cell-based. The note with it: Trichophyton mentagrophytes, TM2, 32° C., 48-72 hours, read-out: Minimal Inhibitory Concentration. The method, then:
as §1, §2, §3, §4, §5

The test system of a further assay is T. rubrum ATCC 10218. The assay is classed as cell-based. To be noted: Trichophyton rubrum, ATCC10218; 32° C., 48-72 hours; read-out: Minimal Inhibitory Concentration. The method, then: as §1, §2, §3, §4, §5
Assay [8] has as its system Trichophyton mentagrophytes ATCC 4807. The assay is classed as cell-based. The note with it: ATCC4807, 32° C., 48-72 hours, read-out: Minimal Inhibitory Concentration. The procedure:
as §1, §2, §3, §4, §5

Another assay relates to S. aureus NRRL B2747. The assay is classed as cell-based, Staphylococcus aureus. The note with it: Staphylococcus aureus, NRRLB2747, 32° C., 24 hours, read-out: Minimal Inhibitory Concentration. The method, then: as §1, §2, §3, §4, §5

`C=C1C(=O)c2cc(Br)ccc2OC1c1ccc(Br)cc1` (stereo not drawn) [Ex. 17, 4',6-dibromo-3-methylene flavanone]: the MIC with A. fumigatus NRRL 163 is above 100 µg/mL; with A. fumigatus NRRL 165, above 100 µg/mL; in assay [1], above 100 µg/mL; in the assay on C. albicans NRRL Y-477, 100 µg/mL (≈ 254 µM); in the assay on C. guillermondii VM 42, above 100 µg/mL; with C. krusei VM 29B, 100 µg/mL (≈ 254 µM). In addition, the MIC with C. tropicalis NRRL Y1410 is above 100 µg/mL; in [2], 100 µg/mL (≈ 254 µM); in [3], above 100 µg/mL; in [4], 50 µg/mL (≈ 127 µM); in [5], above 100 µg/mL; in assay [6] it was 6.2 µg/mL (≈ 15.7 µM). Besides, the MIC is above 100 µg/mL in assay [7]; 50 µg/mL (≈ 127 µM) in the assay with T. mentagrophytes CDC; 25 µg/mL (≈ 63.4 µM) in the assay on T. mentagrophytes TM-2; 25 µg/mL (≈ 63.4 µM) in the assay with T. rubrum ATCC 10218; 12.5 µg/mL (≈ 31.7 µM) in assay [8]; 12.5 µg/mL (≈ 31.7 µM) in the assay on S. aureus NRRL B2747.
As to `C=C1C(=O)c2ccccc2OC1c1cccc2ccccc12` (stereo not drawn) [Ex. 23, 3-methylene-2-(1-naphthyl) chromanone], the MIC in the assay with A. fumigatus NRRL 165 is above 100 µg/mL; in assay [1] it was above 100 µg/mL; in the assay with C. albicans NRRL Y-477, 100 µg/mL (≈ 349 µM); with C. guillermondii VM 42, above 100 µg/mL; in the assay on C. krusei VM 29B it was 50 µg/mL (≈ 175 µM); in the assay on C. tropicalis NRRL Y1410, above 100 µg/mL. For the same compound, the MIC in assay [2] was above 100 µg/mL; in assay [3] it was above 100 µg/mL; in [4], 6.2 µg/mL (≈ 21.7 µM); in assay [5] it was above 100 µg/mL; in assay [6] it was at most 3.1 µg/mL; in [7], 50 µg/mL (≈ 175 µM). Moreover, the MIC in the assay on T. mentagrophytes CDC was 12.5 µg/mL (≈ 43.7 µM); with T. mentagrophytes TM-2, 12.5 µg/mL (≈ 43.7 µM); with T. rubrum ATCC 10218 it was 6.2 µg/mL (≈ 21.7 µM); in assay [8], 6.2 µg/mL (≈ 21.7 µM); in the assay on S. aureus NRRL B2747, 6.2 µg/mL (≈ 21.7 µM).
For `C=C1C(=O)c2ccccc2OC1c1cccc([N+](=O)[O-])c1` (stereo not drawn) [compound 9, 3'-nitro-3-methylene flavanone], the MIC in the assay on A. fumigatus NRRL 165 is 100 µg/mL (≈ 356 µM); in [1], 50 µg/mL (≈ 178 µM); with C. albicans NRRL Y-477 it was 50 µg/mL (≈ 178 µM); in the assay on C. guillermondii VM 42 it was 100 µg/mL (≈ 356 µM); in the assay on C. krusei VM 29B, 50 µg/mL (≈ 178 µM); with C. tropicalis NRRL Y1410, 50 µg/mL (≈ 178 µM). Also, the MIC was 50 µg/mL (≈ 178 µM) in assay [2]; above 100 µg/mL in assay [3]; 6.2 µg/mL (≈ 22 µM) in assay [4]; above 100 µg/mL in assay [5]; 6.2 µg/mL (≈ 22 µM) in [6]; 50 µg/mL (≈ 178 µM) in assay [7]. Also, the MIC was determined as 12.5 µg/mL (≈ 44.4 µM) in the assay on T. mentagrophytes CDC; 6.2 µg/mL (≈ 22 µM) with T. mentagrophytes TM-2; 6.2 µg/mL (≈ 22 µM) in the assay on T. rubrum ATCC 10218; 12.5 µg/mL (≈ 44.4 µM) in assay [8]; 6.2 µg/mL (≈ 22 µM) in the assay with S. aureus NRRL B2747.
With `C=C1C(=O)c2ccccc2OC1c1ccc2ccccc2c1` (stereo not drawn) [compound 24, 3-methylene-2-(2-naphthyl) chromanone], the MIC in the assay on A. fumigatus NRRL 165 is above 100 µg/mL; in assay [1], above 100 µg/mL; in the assay with C. albicans NRRL Y-477, 100 µg/mL (≈ 349 µM); in the assay on C. guillermondii VM 42, above 100 µg/mL; in the assay with C. krusei VM 29B, 25 µg/mL (≈ 87.3 µM); in the assay with C. tropicalis NRRL Y1410 it was above 100 µg/mL. Also, the MIC in assay [2] is above 100 µg/mL; in assay [3], above 100 µg/mL; in assay [4], 12.5 µg/mL (≈ 43.7 µM); in assay [5], above 100 µg/mL; in assay [6] it was at most 3.1 µg/mL; in assay [7], 50 µg/mL (≈ 175 µM). Further, the MIC came to 25 µg/mL (≈ 87.3 µM) in the assay on T. mentagrophytes CDC; 12.5 µg/mL (≈ 43.7 µM) in the assay on T. mentagrophytes TM-2; 6.2 µg/mL (≈ 21.7 µM) with T. rubrum ATCC 10218; 12.5 µg/mL (≈ 43.7 µM) in assay [8]; 6.2 µg/mL (≈ 21.7 µM) in the assay with S. aureus NRRL B2747.
